Assay results reported in US20250019385A1, “SPIROCYCLIC ANNULATED 2-AMINO-3-CYANO THIOPHENES AND DERIVATIVES FOR THE TREATMENT OF CANCER” (Boehringer Ingelheim International GmbH, priority 2023, published 2025).

Tests used:
[1] = target: KRAS (G12C)::SOS1 protein-protein interaction (Homo sapiens (Human), UniProt P01116, C118S/C51S/C80L/G12C); assay: KRAS::SOS1 AlphaScreen binding assay (KRAS G12C); conditions: GDP
From the text: This assay can be used to examine the potency with which compounds according to the invention binding to (mutated) KRAS inhibit the protein-protein interaction between SOS1 and (mutated) KRAS e.g. KRAS G12C, KRAS G12D. […] Low IC50 values in this assay setting are indicative of strong inhibition of protein-protein interaction between SOS1 and KRAS:
These assays measure the inhibitory effect of compounds on KRAS mutant protein-protein interactions using the Alpha Screen technology by Perkin Elmer.
The following (mutant) enzyme forms of KRAS and interacting proteins are used in these assays at the given concentrations:
KRAS (G12C) 1-169, N-terminal 6His-tag for purification, cleaved off, C-terminal avi-tag, biotinylated, mutations: C51S, C80L, C118S (in house); final assay concentration 7.5 nM and SOS1 564-1049, N-terminal 229 GST-tag, TEV cleavage site (Viva Biotech Ltd); final assay concentration 5 nM;
Test compounds dissolved in DMSO are dispensed onto assay plates (Proxiplate 384 PLUS, white, PerkinElmer; 6008289) using an Access Labcyte Workstation with the Labcyte Echo 55x. For the chosen highest assay concentration of 100 μM, 150 nL of compound solution are transferred from a 10 mM DMSO compound stock solution. A series of eleven fivefold dilutions per compound are transferred to the assay plate, compound dilutions are tested in duplicates. DMSO are added as backfill to a total volume of 150 nL.
The assays run on a fully automated robotic system in a darkened room below 100 Lux. To 150 nl of compound dilution 10 μl of a mix including KRAS mutant protein, SOS1 (final assay concentrations see above) and GDP nucleotide (Sigma G7127; final assay concentration 10 μM) in assay buffer (1×PBS, 0.1% BSA, 0.05% Tween 20) are added into columns 1-24.
After 30 minutes incubation time 5 μl of Alpha Screen bead mix in assay buffer are added into columns 1-23. Bead mix consists of AlphaLISA Glutathione Acceptor Beads (PerkinElmer, Cat No AL109) and AlphaScreen Streptavidin Donor Beads (PerkinElmer Cat No 6760002) in assay buffer at a final assay concentration of 10 μg/mL each.
Plates are kept at room temperature in a darkened incubator. After an additional 60 minutes incubation time the signal is measured in a PerkinElmer Envision HTS Multilabel Reader using the AlphaScreen specs from PerkinElmer.
Each plate contains up to 16 wells of a negative control depending on the dilution procedure (platewise or serial) (DMSO instead of test compound; with KRAS mutant::SOS1 GOP mix and bead mix; column 23) and 16 wells of a positive control (DMSO instead of test compound; with KRAS mutant::SOS1 GOP mix w/o bead mix; column 24).
As internal control known inhibitors of KRAS mutant::SOS1 interaction can be measured on each compound plate.
IC50 values are calculated and analyzed with Boehringer Ingelheim's MEGALAB C50 application using a 4 parametric logistic model.
Tables of example compounds disclosed herein contain IC50 values determined using the above assays (see Table 43).

Ba/F3 cells KRAS G12D = assay: Ba/F3 proliferation assay (KRAS G12D); format: cell-based; conditions: Mus musculus, BaF3, 72 h, AlamarBlue viability
Procedure: Ba/F3 cells are ordered from DSMZ (ACC300, Lot17) and grown in RPMI-1640 (ATCC 30-2001)+10% FCS+10 ng/mL IL-3 at 37° C. in 5% […] atmosphere. Plasmids containing KRASG12 mutants (i.e. […], G12C, G12V) are obtained from GeneScript. To generate KRASG12-dependent Ba/F3 models, Ba/F3 cells are transduced with retroviruses containing vectors that harbor KRASG12 isoforms. Platinum-E cells (Cell Biolabs) are used for retrovirus packaging. Retrovirus is added to Ba/F3 cells. To ensure infection, 4 μg/mL polybrene is added and cells are spinfected. Infection efficiency is confirmed by measuring GFP-positive cells using a cell analyzer. Cells with an infection efficiency of 10% to 20% are further cultivated and puromycin selection with 1 μg/mL is initiated. As a control, parental Ba/F3 cells are used to show selection status. Selection is considered successful when parental Ba/F3 cells cultures died. To evaluate the transforming potential of KRASG12 mutations, the growth medium is no longer supplemented with IL-3. Ba/F3 cells harboring the empty vector are used as a control. Approximately ten days before conducting the experiments, puromycin is left out.
For proliferation assays, Ba/F3 cells are seeded into 384-well plates at 1.5×1 (M cells/60 μL in growth media (RPMI-1640+10% FCS). Compounds (10 mM stock in DMSO) are added at logarithmic dose series using the ECHO acoustic liquid handler system (Beckman Coulter), normalizing for added DMSO and including DMSO controls. All compound treatments are performed in technical duplicates. For the TO time point measurement, untreated cells are analyzed at the time of compound addition. Treated cells are incubated for 72 h at 37° C. with 5% CO2 and cell viability is measured in the PerkinElmer Envision Multimode Reader using AlamarBlue™ (ThermoFisher) viability stain. Viability (stated as percent of control) is defined as relative fluorescence units RFU of each well divided by the RFU of cells in DMSO controls. IC50 values are determined from viability measurements by non-linear regression using a four-parameter model.

[2] = Plasma protein binding assay (PPB), equilibrium dialysis; format: in vitro ADME; conditions: bovine, 10% FCS in PBS, read-out: PPB 10% FCS (% fu)
Procedure: Binding of test compounds to plasma was determined using equilibrium dialysis (ED) and quantitative mass spectrometry interfaced with liquid chromatography (LC-MS). In brief, ED was performed with dialysis devices consisting of two chambers separated by a semipermeable membrane with a molecular weight cut-off of 5-10 kg/mol. One chamber was filled with 10% FCS in PBS containing 1-10 μmol/L test compound and the other chamber was filled with phosphate-buffer saline (PBS) with or without dextran. The dialysis chamber was incubated for 3-5 hours at 37° C. After incubation, protein was precipitated from aliquots of each chamber and the concentration of test compound in the supernatant of the plasma-containing compartment (cserum) and of the buffer-containing compartment (cbuffer) was determined by LC-MS. The fraction of unbound test compound (not bound to plasma) (f) was calculated according to the following equation: […]

Sequence of KRAS (G12C)::SOS1 protein-protein interaction (P01116 other isoform, or with tags, fused parts or gaps G12C/C51S/C80L/C118S): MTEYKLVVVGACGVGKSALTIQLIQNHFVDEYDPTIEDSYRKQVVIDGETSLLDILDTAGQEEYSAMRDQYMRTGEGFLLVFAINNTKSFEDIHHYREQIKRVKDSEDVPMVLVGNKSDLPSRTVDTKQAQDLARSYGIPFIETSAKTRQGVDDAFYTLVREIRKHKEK

Compound	IC50 [1] [nM]	IC50 (Ba/F3 cells KRAS G12D) [nM]	fraction unbound [2]
C[C@H](Oc1nc(-c2onc3c2CCC[C@@]32CCCc3sc(N)c(C#N)c32)nc2c1n(C)c(=O)n2[C@H]1CCCOC1)[C@@H]1CCCN1C [I-11]	4	344	0.06
C[C@H](Oc1nc(-c2onc3c2CCC[C@@]32CCCc3sc(N)c(C#N)c32)nc2c1n(C)c(=O)n2[C@@H]1CCCOC1)[C@@H]1CCCN1C [I-12]	1	12	0.18
C[C@H](Oc1nc(-c2onc3c2CCC[C@@]32CCCc3sc(N)c(C#N)c32)nc2c1[nH]c(=O)n2[C@@H]1CCCOC1)[C@@H]1CCCN1C [I-13]	2	141	0.18
CO[C@@H]1C[C@@H]([C@H](C)Oc2nc(-c3onc4c3CCC[C@@]43CCCc4sc(N)c(C#N)c43)nc3c2n(C)c(=O)n3[C@@H]2CCCOC2)N(C)C1 [I-14]	2	10	0.15
C[C@H](Oc1nc(-c2onc3c2CCC[C@@]32CCCc3sc(N)c(C#N)c32)nc2c1n(C)c(=O)n2C12COC(C1)C2)[C@@H]1CCCN1C [I-15]	2	51	0.13
CO[C@H]1C[C@H](n2c(=O)n(C)c3c(O[C@@H](C)[C@@H]4CCCN4C)nc(-c4onc5c4CCC[C@@]54CCCc5sc(N)c(C#N)c54)nc32)C1 [I-16]	5	488	0.13
C[C@H](Oc1nc(-c2onc3c2CCC[C@@]32CCCc3sc(N)c(C#N)c32)nc2c1n(C)c(=O)n2[C@H]1CC2CCC1O2)[C@@H]1CCCN1C (stereo partly drawn) [I-17]	2	47	0.04
C[C@H](Oc1nc(-c2onc3c2CCC[C@@]32CCCc3sc(N)c(C#N)c32)nc2c1n(C)c(=O)n2[C@@H]1CC2CCC1O2)[C@@H]1CCCN1C (stereo partly drawn) [I-18]	4	182	0.2
C[C@H](Oc1nc(-c2onc3c2CCC[C@@]32CCCc3sc(N)c(C#N)c32)nc2c1n(C)c(=O)n2[C@H]1CCC[C@@H]1O)[C@@H]1CCCN1C [I-19]	2	470	0.05
C[C@H](Oc1nc(-c2onc3c2CCC[C@@]32CCCc3sc(N)c(C#N)c32)nc2c1n(C)c(=O)n2[C@@H]1CCOC1)[C@@H]1CCCN1C [I-20]	1	9	0.28
CCn1c(=O)n([C@@H]2CCOC2)c2nc(-c3onc4c3CCC[C@@]43CCCc4sc(N)c(C#N)c43)nc(O[C@@H](C)[C@@H]3CCCN3C)c21 [I-21]	1	21	0.16
C[C@H](Oc1nc(-c2onc3c2CCC[C@@]32CCCc3sc(N)c(C#N)c32)nc2c1n(C)c(=O)n2[C@@H]1CCOC1)[C@@H]1C[C@@H](F)CN1C [I-22]	1	22	0.19
CO[C@H]1CCN(C)[C@@H]1[C@H](C)Oc1nc(-c2onc3c2CCC[C@@]32CCCc3sc(N)c(C#N)c32)nc2c1n(C)c(=O)n2[C@@H]1CCOC1 [I-23]	1	10	0.22
C[C@H](Oc1nc(-c2onc3c2CCC[C@@]32CCCc3sc(N)c(C#N)c32)nc2c1n(C)c(=O)n2C1COC1)[C@@H]1CCCN1C [I-24]	2	134	0.18
C[C@H](Oc1nc(-c2onc3c2CCC[C@@]32CCCc3sc(N)c(C#N)c32)nc2c1n(C)c(=O)n2[C@@H]1CCOC1)C12CCCN1CCC2 [I-25]	2	25	0.26
C[C@H](Oc1nc(-c2onc3c2CCC[C@@]32CCCc3sc(N)c(C#N)c32)nc2c1n(C)c(=O)n2[C@@H]1CCOC1)[C@@H]1CC[C@H](C)N1C [I-26]	2	5	0.17

Next, values leading:

IC50 [1] [nM]	IC50 (Ba/F3 cells KRAS G12D) [nM]	fraction unbound [2]	Compound
2	55	0.15	C[C@H](Oc1nc(-c2onc3c2CCC[C@@]32CCCc3sc(N)c(C#N)c32)nc2c1n(C)c(=O)n2[C@@H]1CCOC1)[C@@H]1C[C@H](F)CN1C [I-27]
2	53	0.05	C[C@H](Oc1nc(-c2onc3c2CCC[C@@]32CCCc3sc(N)c(C#N)c32)nc2c1n(C)c(=O)n2[C@@H]1CCOC1)[C@@H]1C[C@@H]2C[C@@H]2N1C [I-28]
1	14	0.39	C[C@H](Oc1nc(-c2onc3c2CCC[C@@]32CCCc3sc(N)c(C#N)c32)nc2c1n(C)c(=O)n2[C@@]12COC[C@@H]1C2)[C@@H]1CCCN1C [I-29]
2	29	0.08	CCn1c(=O)n([C@@H]2CCCOC2)c2nc(-c3onc4c3CCC[C@@]43CCCc4sc(N)c(C#N)c43)nc(O[C@@H](C)[C@@H]3CCCN3C)c21 [I-30]
2	37	0.09	CO[C@H]1C[C@@H](n2c(=O)n(C)c3c(O[C@@H](C)[C@@H]4CCCN4C)nc(-c4onc5c4CCC[C@@]54CCCc5sc(N)c(C#N)c54)nc32)C1 [I-31]
2	58	0.07	CC(C)n1c(=O)n([C@@H]2CCOC2)c2nc(-c3onc4c3CCC[C@@]43CCCc4sc(N)c(C#N)c43)nc(O[C@@H](C)[C@@H]3CCCN3C)c21 [I-32]
22	3550	0.02	CCn1c(=O)n([C@@H]2CCCOC2)c2nc(-c3onc4c3CCC[C@@]43CCCc4sc(N)c(C#N)c43)nc(OC[C@@]34CCCN3C[C@H](F)C4)c21 [I-33]
6	3020	0.07	CCn1c(=O)n([C@@H]2CCCOC2)c2nc(-c3onc4c3CCC[C@@]43CCCc4sc(N)c(C#N)c43)nc(OCC34CCCN3CCC4)c21 [I-34]
2	411	0.07	CCn1c(=O)n([C@@H]2CCCOC2)c2nc(-c3onc4c3CCC[C@@]43CCCc4sc(N)c(C#N)c43)nc(OCC3(CN4CCCC4)CC3)c21 [I-35]
